One data set concerns PC12 cells. Nature of the data set: CAT transient transfection. It counts as cell-based, rat. As for the experimental part: (§1) A one-to-one mixture (by weight) of the desired lipid and dioleylphosphatidyl ethanolamine was prepared in CHCl3. The CHCl3 was removed on the rotary evaporator to obtain a thin film of lipid mixture. The mixture was hydrated with enough water to obtain approximately 1.25 mg of lipid per ml of solution. The solution was passed through a microfluidizer twice and diluted to 1 mg/ml. The liposome formulation was then filtered through a 0.2 μ filter. Compound 8 was also formulated without DOPE either by sonication at 1 mg/ml in water or by dissolving a dried lipid film with ethanol and then adding water to give a final concentration of 2.5 mg/ml. Ethanol was 10% of that volume. In some instances, this was further diluted with water to 1 mg/ml, 4% ethanol.
(§2) Baby hamster kidney (BHK-21) , COS-7, HeLa-S3 cells, and normal human fibroblasts isolated from newborn foreskin dermis were grown in Dulbecco's-modified Eagle's medium (DMEM) containing 10% fetal bovine serum (FBS), 2 mM L-glutamine (gln), 0.1 mM MEM nonessential amino acids (NEAA), 100 U/ml penicillin, and 100 μg/ml streptomycin. […]
Cell lysates were assayed for CAT activity as described by Neumann et al. (1987) BioTechniques 5:444 using [^14 C]-butyryl coenzyme A (New England Nuclear, Boston, Mass.). […] CAT activity was determined by measuring radioactivity in a liquid scintillation counter. […]

For a further data set, the system named is Jurkat cells. In words: CAT transient transfection. The class given is cell-based, human. Here is the method: as §1
(§3) Baby hamster kidney (BHK-21) , COS-7, HeLa-S3 cells, and normal human fibroblasts isolated from newborn foreskin dermis were grown in Dulbecco's-modified Eagle's medium (DMEM) containing 10% fetal bovine serum (FBS), 2 mM L-glutamine (gln), 0.1 mM MEM nonessential amino acids (NEAA), 100 U/ml penicillin, and 100 μg/ml streptomycin. NIH-3T3 cells were grown in DMEM containing 10% calf serum (CS), 2 mMgln, 0.1 mM NEAA 100 U/ml penicillin, and 100 μg/ml streptomycin. PC12 cells were grown in DMEMcontaining 10% horse serum, 5% FBS, 2 mM gln, 0 1 mMNEAA, 100 U/ml penicillin and 100 μ/ml streptomycin. Jurkat cells (human lymphoid cell line) were grown in RPMI-1640 supplemented with 10% FBS, 2mML-glutamine, 100 U/ml penicillin, and 100 μg/ml streptomycin. Human keratinocytes were isolated from newborn foreskin epidermis and cultured in Keratinocyte Growth Medium (Clonetics, San Diego, Ca.). All cell lines were maintained in a humidified incubator with a 5% CO2 atmosphere at 37° C.
pSV2CAT (5.0 Kb) was described previously (Gorman, C. M. et al. (1982) Mol. Cell. Biol. 2:1044). pCMVCAT (5.0 Kb) was also described previously (Foecking M. K. and Hofstetter, H. (1986) Gene 45:101). Plasmid DNA was purified by isopycnic centrifugation in CsCl/EtBr gradients after recovery by alkaline lysis (Maniatis, T. et al. (1982) in Molecular Cloning: A Laboratory Manual, Cold Spring Harbor Laboratory, Cold Spring Harbor, N.Y., pp. 90-91).
For transient nuclear expression of pSV2CAT or pCMVCAT in Jurkat cells, cells were washed with Opti-MEM I or serum-free RPMI 1640 containing 2 mM gln and plated in six-well plates at a density of 3×10^6 cells per well in 0.8 ml Opti-MEM I or RPMI 1640. For each transfection, 5 μg pSV2CAT DNA or 2 μg pCMVCAT DNA was diluted in 100 μl Opti-MEM I. Lipids were diluted separately in another 100 μl aliquot of Opti-MEMI. The two solutions were then mixed in a polystyrene tube and incubated for 10-15 min at room temperature. The DNA-liposome complex was added to the cell suspensions and incubated 6 hours at 37° C., after which 4 ml growth medium were added per well (RPMI-1640; 10% FBS). Phorbol myristate acetate (Sigma Chemical Co., St. Louis, Mo.) and phytohemagglutinin (Sigma) were also added to a final concentration of 50 ng/ml and 1 μg/ml, respectively, to activate the cells. Cells were harvested at approximately 48 hours post-transfection by centrifugation. Cell lysates were prepared by resuspending cell pellets at 0° C. in 0.1 M Tris-HC1 pH 8.0 containing 0.1% Triton X-100 and freeze-thawing once. Cell lysates were cleared by centrifugation and assayed for CAT activity.
Cell lysates were assayed for CAT activity as described by Neumann et al. (1987) BioTechniques 5:444 using [^14 C]-butyryl coenzyme A (New England Nuclear, Boston, Mass.). The enzyme reactions were incubated for 2 hrs at 37° C., overlayed with 3.0 ml Econofluor (New England Nuclear) and then incubated for an additional 2 hrs to allow diffusion of the acetylated chloramphenicol into the scintillation fluid. CAT activity was determined by measuring radioactivity in a liquid scintillation counter. […]

The next data set relates to COS-7 cells. In words: % protein (toxicity estimate, Bradford) after transfection. It counts as cell-based. The settings on record: Cos-7. Here is the method:
as §1, §2
(§4) The "% protein" column indicates the relative amount of protein in the sample tested for CAT activity and therefore provides a way to estimate toxicity of the compounds being tested. […] Protein was measured using a commercially available Bradford protein assay (BioRad Laboratories, Richmond, Ca.). […]

In data set [1] the test system is normal human keratinocytes. The description is as above. The class given is cell-based. Here is the method:
as §1
as §3, with “C. […]” for “C.”
as §4

The subject of another data set is NIH-3T3 cells. Described as above. It counts as cell-based, mouse. Here is the method:
as §1, §2, §4

Where a name gives a salt, the structure may show the parent alone.

For the compound `CCCCCCCC/C=C\CCCCCCCCOCC(C[N+](C)(C)CCNC(=O)C(CCCNCCCN)NCCCN)OCCCCCCCC/C=C\CCCCCCCC` (stereo not shown) [Compound 8, 1-Propanaminium, N-[2-[[2,5-bis[(3-amino]-1-oxopentyl]amino]ethyl]-n,n-dimethyl-2,3,-bis(9-octadecenyloxy)-, tetra(trifluoroacetate) salt], the “CAT ACTIVITY” value is reported as 28,512 CPM/150 ul in the data set with PC12 cells (40 μg lipid, 2 μg pCMVCAT, 6 h DMEM) and 44,996 CPM/150 ul in the data set on Jurkat cells (15 μg lipid, 2 μg pCMVCAT, 6 h RPMI1640). Also, the “DNA transfection (in words)” value in the data set with PC12 cells (PC12) and with Jurkat cells (Jurkat) was “highly effective” each time. The “toxicity (in words)” value (with COS-7 cells; in data set [1]; in the data set on NIH-3T3 cells) was “minimal toxicity” each time.

Source of the values: patent US5334761A, “Cationic lipids” (Life Technologies, Inc., priority 1992, dated 1994).
